What was measured:
Type in all cases: cell-based
SMARCA4 = biological target: T1, SMARCA4 (Homo sapiens, UniProt P51532); experiment: SMARCA4 Western blot degradation in MV4-11 cells; details: for SMARCA4 MSD MV411 degradation 24 h: average Dmax % / DC50: MV4-11 cells; for DC50 / Dmax: 24 h; for DC50: read-out: SMARCA4 MSD MV411 degradation 24 h: Mean external-Abs DC50; for Dmax: MV4-11, MV4-11 cells, read-out: SMARCA4 MSD MV411 degradation 24 h: average Dmax %
T1 construct: SMARCA2/SMARCA4 protein degradation selectivity in MV4-11 cells; endogenous in cells; host or cells: MV4-11
Summary of the method: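 MV4-11 cells (4×10^6/well) treated with compound for 24 h, lysed in RIPA with protease/phosphatase inhibitors, and SMARCA2, SMARCA4 and beta-actin detected by Western blot with LI-COR readout. Values reported as letter-coded DC50, 24 h Dmax % and SMARCA2/4 selectivity fold.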

SMARCA2 [1] = biological target: T2, SMARCA2 (Homo sapiens, UniProt P51531); experiment: MSD SMARCA2 degradation in A549 cell line; details: for SMARCA2 MSD A549 degradation 24 h: Average Dmax % / DC50: A549 cells; for DC50 / Dmax: 24 h; for DC50: read-out: SMARCA2 MSD A549 degradation 24 h: Average external-Abs DC50; for Dmax: A549, A549 cells
Summary of the method: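 A549 cells treated 24 h with compound, 3-fold series from 1000 nM. Lysates captured on MSD plates and SMARCA2 quantified with anti-SMARCA2 and SULFO-TAG secondary antibodies (electrochemiluminescence). DC50 and Dmax (% degradation at 24 h) reported as letter bins.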

SMARCA2 [2] = biological target: T2, SMARCA2; experiment: SMARCA2 Western blot degradation in MV4-11 cells; set-up: SMARCA2/SMARCA4 protein degradation selectivity in MV4-11 cells; endogenous in cells; host or cells: MV4-11; details: for SMARCA2 MSD MV411 degradation 24 h: average Dmax % / DC50 / Selectivity in MV411: MV4-11 cells; for SMARCA2 MSD MV411 degradation 24 h: average Dmax % / DC50 / Dmax: 24 h; for DC50: read-out: SMARCA2 MSD MV411 degradation 24 h: Mean external-Abs DC50; for Selectivity in MV411: SMARCA2/4 selectivity; for Dmax: MV4-11, MV4-11 cells, read-out: SMARCA2 MSD MV411 degradation 24 h: average Dmax %

T1 sequence (P51532 whole entry): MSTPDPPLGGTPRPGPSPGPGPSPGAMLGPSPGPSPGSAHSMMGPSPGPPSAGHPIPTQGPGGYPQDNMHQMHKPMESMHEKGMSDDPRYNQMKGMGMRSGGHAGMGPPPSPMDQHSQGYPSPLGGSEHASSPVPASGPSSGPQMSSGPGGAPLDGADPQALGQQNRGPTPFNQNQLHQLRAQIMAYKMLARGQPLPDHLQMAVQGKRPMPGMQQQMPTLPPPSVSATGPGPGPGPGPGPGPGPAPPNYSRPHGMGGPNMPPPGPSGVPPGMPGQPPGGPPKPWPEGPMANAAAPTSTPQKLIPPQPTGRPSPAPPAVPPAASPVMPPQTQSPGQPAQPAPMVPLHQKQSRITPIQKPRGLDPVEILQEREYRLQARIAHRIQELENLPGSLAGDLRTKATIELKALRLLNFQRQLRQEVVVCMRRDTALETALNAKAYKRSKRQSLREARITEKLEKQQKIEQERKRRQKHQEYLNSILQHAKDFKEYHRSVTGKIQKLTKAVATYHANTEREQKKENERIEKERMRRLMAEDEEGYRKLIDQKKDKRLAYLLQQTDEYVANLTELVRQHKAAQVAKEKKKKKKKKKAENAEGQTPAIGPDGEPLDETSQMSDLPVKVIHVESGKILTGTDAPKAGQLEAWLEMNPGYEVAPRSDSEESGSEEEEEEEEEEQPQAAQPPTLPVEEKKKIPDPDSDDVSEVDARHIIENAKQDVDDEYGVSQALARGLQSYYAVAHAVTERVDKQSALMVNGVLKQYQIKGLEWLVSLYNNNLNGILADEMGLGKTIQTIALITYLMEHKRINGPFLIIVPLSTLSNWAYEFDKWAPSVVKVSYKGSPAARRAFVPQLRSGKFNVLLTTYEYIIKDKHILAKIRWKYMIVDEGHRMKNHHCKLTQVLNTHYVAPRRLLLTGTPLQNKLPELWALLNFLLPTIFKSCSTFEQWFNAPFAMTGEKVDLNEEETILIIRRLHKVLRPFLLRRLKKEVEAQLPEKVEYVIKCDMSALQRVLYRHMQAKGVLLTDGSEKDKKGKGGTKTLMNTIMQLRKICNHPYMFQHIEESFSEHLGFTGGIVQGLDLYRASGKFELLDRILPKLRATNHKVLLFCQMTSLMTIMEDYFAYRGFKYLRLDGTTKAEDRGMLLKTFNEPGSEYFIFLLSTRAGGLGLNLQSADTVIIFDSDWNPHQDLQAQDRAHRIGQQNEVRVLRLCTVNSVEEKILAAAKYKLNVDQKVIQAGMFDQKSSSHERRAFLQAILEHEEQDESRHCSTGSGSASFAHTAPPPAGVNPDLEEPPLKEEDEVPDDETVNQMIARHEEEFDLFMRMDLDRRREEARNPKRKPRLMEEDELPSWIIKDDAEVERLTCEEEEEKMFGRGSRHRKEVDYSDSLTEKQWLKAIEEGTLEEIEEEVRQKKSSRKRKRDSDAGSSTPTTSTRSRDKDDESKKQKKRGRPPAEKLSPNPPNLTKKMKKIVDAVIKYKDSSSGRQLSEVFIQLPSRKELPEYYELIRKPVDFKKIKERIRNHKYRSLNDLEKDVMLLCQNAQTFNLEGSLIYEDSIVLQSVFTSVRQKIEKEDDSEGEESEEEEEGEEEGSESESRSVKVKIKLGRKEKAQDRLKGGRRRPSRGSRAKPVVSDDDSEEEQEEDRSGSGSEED
T2 sequence (P51531 whole entry): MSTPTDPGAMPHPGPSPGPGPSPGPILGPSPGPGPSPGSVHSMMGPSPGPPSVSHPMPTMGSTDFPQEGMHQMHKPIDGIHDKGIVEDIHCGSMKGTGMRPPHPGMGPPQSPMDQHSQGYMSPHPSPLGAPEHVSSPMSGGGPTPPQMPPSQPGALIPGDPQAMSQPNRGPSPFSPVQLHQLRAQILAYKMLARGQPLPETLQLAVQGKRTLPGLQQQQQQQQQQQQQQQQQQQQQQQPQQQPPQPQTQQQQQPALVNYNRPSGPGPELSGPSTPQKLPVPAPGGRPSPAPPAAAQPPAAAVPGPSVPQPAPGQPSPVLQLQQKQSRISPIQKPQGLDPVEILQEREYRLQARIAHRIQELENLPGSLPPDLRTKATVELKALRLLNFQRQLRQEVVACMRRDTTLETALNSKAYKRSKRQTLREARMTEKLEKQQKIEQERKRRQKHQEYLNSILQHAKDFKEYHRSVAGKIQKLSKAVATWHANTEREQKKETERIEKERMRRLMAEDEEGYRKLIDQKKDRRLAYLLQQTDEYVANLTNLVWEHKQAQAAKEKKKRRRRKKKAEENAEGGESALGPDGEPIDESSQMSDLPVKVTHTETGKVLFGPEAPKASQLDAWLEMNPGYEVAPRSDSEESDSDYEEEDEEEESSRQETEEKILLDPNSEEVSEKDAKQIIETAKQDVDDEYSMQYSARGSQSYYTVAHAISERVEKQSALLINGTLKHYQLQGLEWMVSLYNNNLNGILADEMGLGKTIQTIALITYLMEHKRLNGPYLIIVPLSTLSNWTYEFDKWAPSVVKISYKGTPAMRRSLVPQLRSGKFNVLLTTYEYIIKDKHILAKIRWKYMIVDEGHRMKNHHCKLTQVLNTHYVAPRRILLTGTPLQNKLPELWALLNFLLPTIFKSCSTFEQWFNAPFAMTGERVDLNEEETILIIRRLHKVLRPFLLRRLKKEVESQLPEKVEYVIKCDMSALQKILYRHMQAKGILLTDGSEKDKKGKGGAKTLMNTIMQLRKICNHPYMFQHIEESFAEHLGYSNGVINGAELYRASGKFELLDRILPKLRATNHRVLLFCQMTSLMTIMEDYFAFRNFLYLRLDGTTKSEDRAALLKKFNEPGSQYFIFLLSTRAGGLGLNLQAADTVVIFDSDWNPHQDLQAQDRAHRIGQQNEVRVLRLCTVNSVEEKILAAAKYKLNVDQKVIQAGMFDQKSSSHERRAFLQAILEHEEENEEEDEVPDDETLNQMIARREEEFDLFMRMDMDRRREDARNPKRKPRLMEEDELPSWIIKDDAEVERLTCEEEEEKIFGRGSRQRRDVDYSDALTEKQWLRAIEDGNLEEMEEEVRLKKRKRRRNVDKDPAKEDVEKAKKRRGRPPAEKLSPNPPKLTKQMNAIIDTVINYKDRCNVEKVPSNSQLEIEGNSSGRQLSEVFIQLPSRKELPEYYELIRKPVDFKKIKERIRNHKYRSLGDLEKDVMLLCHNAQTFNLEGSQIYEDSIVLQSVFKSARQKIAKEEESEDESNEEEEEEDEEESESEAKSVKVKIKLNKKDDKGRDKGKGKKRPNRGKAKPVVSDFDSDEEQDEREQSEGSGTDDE

Row | SMARCA4 MSD MV411 degradation 24 h: average Dmax % (SMARCA4) | DC50 (SMARCA4) [nM] | SMARCA2 MSD A549 degradation 24 h: Average Dmax % (SMARCA2 [1]) | DC50 (SMARCA2 [1]) [nM] | SMARCA2 MSD MV411 degradation 24 h: average Dmax % (SMARCA2 [2]) | DC50 (SMARCA2 [2]) [nM] | Selectivity in MV411 (SMARCA2 [2]) | Dmax (SMARCA4) [%] | Dmax (SMARCA2 [1]) [%] | Dmax (SMARCA2 [2]) [%] | Structure (SMILES)
1 | D (D (<50% degradation)) | > 100 | A (A (>90% degradation)) | > 100 | B (B (>70-90% degradation)) | 1 to 10 | B (B (>100-500 fold)) | – | – | – | C#Cc1ccc(C2(NC(=O)[C@@H]3C[C@@H](O)CN3C(=O)[C@@H](NC(=O)[C@H]3CC4(C3)C[C@H](N3CCC(N5CCC(N6CCN7c8cc(-c9ccccc9O)nnc8NC[C@H]7C6)CC5)CC3)C4)C(C)(C)C)CC2)cc1 (single isomer, unassigned) [I-225]
2 | – | 10 to 100 | – | 50 to 100 | – | 1 to 10 | C (C (10-100 fold)) | 70 to 90 | > 90 | > 90 | C#Cc1ccc(CNC(=O)[C@@H]2C[C@@H](O)CN2C(=O)[C@@H](NC(=O)N2CC3(CC(N4CCC(N5CCC(N6CCN7c8cc(-c9ccccc9O)nnc8NC[C@H]7C6)CC5)CC4)C3)C2)C(C)(C)C)cc1 [I-215]
3 | – | > 100 | – | > 100 | – | 10 to 100 | C (C (10-100 fold)) | 70 to 90 | > 90 | 70 to 90 | C#Cc1ccc(CNC(=O)[C@@H]2C[C@@H](O)CN2C(=O)[C@@H](NC(=O)N2CC3(CC(N4CCC([C@H]5CC[C@@H](N6CCc7[nH]c8nnc(-c9ccccc9O)cc8c7[C@H]6C)CC5)CC4)C3)C2)C(C)(C)C)cc1 [I-185]
4 | – | > 100 | – | > 100 | – | 10 to 100 | B (B (>100-500 fold)) | < 50 | 70 to 90 | 50 to 70 | C#Cc1ccc(CNC(=O)[C@@H]2C[C@@H](O)CN2C(=O)[C@@H](NC(=O)N2CCCC(N3CCC(c4cnc(N5CCN6c7cc(-c8ccccc8O)nnc7NC[C@H]6C5)nc4)CC3)C2)C(C)(C)C)cc1 (mixture of isomers) [I-245]
5 | – | 10 to 100 | – | 10 to 50 | – | 1 to 10 | C (C (10-100 fold)) | 50 to 70 | > 90 | > 90 | Cc1ncsc1-c1ccc(CNC(=O)[C@@H]2C[C@@H](O)CN2C(=O)[C@@H](NC(=O)N2CC3(CC(N4CCC(c5cnc(N6CCN7c8cc(-c9ccccc9O)nnc8NC[C@H]7C6)nc5)CC4)C3)C2)C(C)(C)C)cc1 [I-64]
6 | – | > 100 | – | 10 to 50 | – | 10 to 100 | C (C (10-100 fold)) | 50 to 70 | > 90 | 70 to 90 | C#Cc1ccc(CNC(=O)[C@@H]2C[C@@H](O)CN2C(=O)[C@@H](NC(=O)N2CCN(Cc3ccc(-c4cnc(N5CCN6c7cc(-c8ccccc8O)nnc7NC[C@H]6C5)nc4)cc3)CC2)C(C)(C)C)cc1 [I-269]
7 | – | 10 to 100 | – | 50 to 100 | – | 1 to 10 | C (C (10-100 fold)) | 70 to 90 | > 90 | > 90 | C#Cc1ccc(CNC(=O)[C@@H]2C[C@@H](O)CN2C(=O)[C@@H](NC(=O)[C@H]2CC3(C2)C[C@H](N2CCC(N4CCC(N5CCN6c7cc(-c8ccccc8O)nnc7NC[C@H]6C5)CC4)CC2)C3)C(C)(C)C)c(O)c1 (single isomer, unassigned) [I-241]
8 | – | > 100 | – | < 10 | – | 1 to 10 | C (C (10-100 fold)) | 70 to 90 | > 90 | 70 to 90 | C#Cc1ccc([C@H](C)NC(=O)[C@@H]2C[C@@H](O)CN2C(=O)[C@@H](NC(=O)N2CC3(CC(N4CCC(c5cnc(N6CCc7[nH]c8nnc(-c9ccccc9O)cc8c7[C@H]6C)nc5)CC4)C3)C2)C(C)(C)C)c(O)c1 [I-282]
9 | – | 10 to 100 | – | < 10 | – | 1 to 10 | C (C (10-100 fold)) | > 90 | > 90 | > 90 | C#Cc1ccc(CNC(=O)[C@@H]2C[C@@H](O)CN2C(=O)[C@@H](NC(=O)N2CC3(CC(N4CCC(c5cnc(N6CCc7[nH]c8nnc(-c9ccccc9O)cc8c7[C@H]6C)nc5)CC4)C3)C2)C(C)(C)C)c(OCCO)c1 [I-143]
10 | – | > 100 | – | > 100 | – | 10 to 100 | C (C (10-100 fold)) | 50 to 70 | > 90 | 50 to 70 | C#Cc1ccc(CNC(=O)[C@@H]2C[C@@H](O)CN2C(=O)[C@@H](NC(=O)N2CCN(C[C@@H]3CCN(c4cnc(N5CCc6[nH]c7nnc(-c8ccccc8O)cc7c6[C@H]5C)nc4)C3)CC2)C(C)(C)C)cc1 (single isomer, unassigned) [I-161]
11 | D (D (<50% degradation)) | > 100 | A (A (>90% degradation)) | > 100 | B (B (>70-90% degradation)) | 10 to 100 | B (B (>100-500 fold)) | – | – | – | C#Cc1ccc(CNC(=O)[C@@H]2C[C@@H](O)CN2C(=O)[C@@H](NC(=O)[C@H]2CCC3(CC2)C[C@H](N2CCC(N4CCC(N5CCN6c7cc(-c8ccccc8O)nnc7NC[C@H]6C5)CC4)CC2)C3)C(C)(C)C)c(Cl)c1 (stereo partly shown) [I-222]
12 | – | > 100 | – | 50 to 100 | – | 10 to 100 | C (C (10-100 fold)) | 70 to 90 | > 90 | 70 to 90 | C#Cc1ccc([C@@H](C)NC(=O)[C@@H]2C[C@@H](O)CN2C(=O)C(c2cc(N3CCC(CN4CCC(N5CCC(N6CCN7c8cc(-c9ccccc9O)nnc8NC[C@H]7C6)CC5)CC4)CC3)no2)C(C)C)c(Cl)c1 (stereo partly shown) [I-327]
13 | – | > 100 | – | > 100 | – | > 100 | D (D (<10 fold)) | < 50 | 50 to 70 | < 50 | C#Cc1ccc([C@H](C)NC(=O)[C@@H]2C[C@@H](O)CN2C(=O)[C@@H](c2cc(OCCN3CCC(N4CCC(N5CCC(CN6CCN7c8cc(-c9ccccc9O)nnc8NC[C@H]7C6)CC5)CC4)CC3)no2)C(C)C)cc1 (single isomer, unassigned) [I-334]
14 | – | > 100 | – | 50 to 100 | – | 10 to 100 | D (D (<10 fold)) | > 90 | > 90 | 70 to 90 | C#Cc1ccc(CNC(=O)[C@@H]2C[C@@H](O)CN2C(=O)[C@@H](NC(=O)N2CC3(CC(N4CCC(c5cnc(N6CCc7[nH]c8nnc(-c9ccccc9O)cc8c7[C@@H]6C)nc5)CC4)C3)C2)C(C)(C)C)c(OCCCOC)c1 [I-227]
15 | – | > 100 | – | > 100 | – | 10 to 100 | B (B (>100-500 fold)) | < 50 | > 90 | 70 to 90 | C#Cc1ccc(CNC(=O)[C@@H]2C[C@@H](O)CN2C(=O)[C@@H](NC(=O)CCCCCN2CCC(N3CC4(CC(N5CCN6c7cc(-c8ccccc8O)nnc7NC[C@H]6C5)C4)C3)CC2)C(C)(C)C)cc1 [I-251]
16 | – | > 100 | – | 10 to 50 | – | 10 to 100 | C (C (10-100 fold)) | 70 to 90 | > 90 | 70 to 90 | C#Cc1cc(F)c(CNC(=O)[C@@H]2C[C@@H](O)CN2C(=O)[C@@H](NC(=O)N2CC3(CC(N4CCC(c5cnc(N6CCc7[nH]c8nnc(-c9ccccc9O)cc8c7[C@H]6C)nc5)CC4)C3)C2)C(C)(C)C)cc1F [I-403]
